Data published in ChEMBL document CHEMBL1201862, “PubChem BioAssay data set” (2004).
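How tested: cells in 96-well plates exposed to compound for 48 hours at five concentrations. GI50 marks 50% less growth.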 Active and inactive are the calls of the source. Cut-off read from the data, not from the text of the source: active = GI50 up to about 1.1 µM and inactive = higher.

Legend:
Assay in all cases: DTP human tumour cell line panel, 48 h
M14 = tested on: M14
HOP-62 = tested on: HOP-62
HCT-15 = tested on: HCT-15
SK-MEL-28 = tested on: SK-MEL-28
NCI-H23 = tested on: NCI-H23
RXF 393 = tested on: RXF 393
NCI-H460 = tested on: NCI-H460
U-251 = tested on: U-251
LXFL 529 = tested on: LXFL 529
KM12 = tested on: KM12
HT-29 = tested on: HT-29
SK-MEL-5 = tested on: SK-MEL-5
SNB-75 = tested on: SNB-75
K562 = tested on: K562
OVCAR-3 = tested on: OVCAR-3
SF-268 = tested on: SF-268
HOP-92 = tested on: HOP-92
T47D = tested on: T47D
MDA-MB-435 = tested on: MDA-MB-435
MDA-MB-231 = tested on: MDA-MB-231

SMILES	GI50 (M14)	GI50 (HOP-62)	GI50 (HCT-15) [µM]	GI50 (SK-MEL-28)	GI50 (NCI-H23)	GI50 (RXF 393)	GI50 (NCI-H460)	GI50 (U-251)	GI50 (LXFL 529)	GI50 (KM12)	GI50 (HT-29)	GI50 (SK-MEL-5)	GI50 (SNB-75)	GI50 (K562)	GI50 (OVCAR-3)	GI50 (SF-268)	GI50 (HOP-92)	GI50 (T47D)	GI50 (MDA-MB-435)	GI50 (MDA-MB-231)
C[C@]12CCC(=O)C(O)=C1CC[C@@H]1C2CC[C@]2(C)Nc3c(cnn3-c3ccccc3)CC12 (stereo not given in full)	> 100 µM (inactive)	> 100 µM (inactive)	49.9	> 100 µM (inactive)	54.5 µM (inactive)	55.1 µM (inactive)	48.8 µM (inactive)	> 100 µM (inactive)	42.6 µM (inactive)	31.7 µM (inactive)	39.4 µM (inactive)	38.8 µM (inactive)	> 100 µM (inactive)	40.6 µM (inactive)	54.8 µM (inactive)					
c1ccc2c(c1)CCCc1cc3ccccc3nc1-2	> 100 µM (inactive)	> 100 µM (inactive)	> 100	> 100 µM (inactive)	> 100 µM (inactive)		> 100 µM (inactive)	> 100 µM (inactive)	> 100 µM (inactive)	> 100 µM (inactive)	46.3 µM (inactive)	92.5 µM (inactive)	75.3 µM (inactive)	> 100 µM (inactive)	> 100 µM (inactive)	92.5 µM (inactive)				
O=CC1CCC=CC1NC(=O)OCc1ccccc1 (stereo not given)	33.9 µM (inactive)	> 100 µM (inactive)	54.8	> 100 µM (inactive)	> 100 µM (inactive)	54.6 µM (inactive)	59.3 µM (inactive)	57.5 µM (inactive)	44.5 µM (inactive)	47 µM (inactive)	51.4 µM (inactive)	51.9 µM (inactive)	29.2 µM (inactive)	4.68 µM (inactive)		85.5 µM (inactive)	99.5 µM (inactive)			
CC(=O)Nc1ccc(S(=O)(=O)N/N=C/CN2C(=O)c3ccccc3C2=O)cc1	> 100 µM (inactive)	> 100 µM (inactive)	> 100		> 100 µM (inactive)	85.1 µM (inactive)	> 100 µM (inactive)	> 100 µM (inactive)	> 100 µM (inactive)	> 100 µM (inactive)	> 100 µM (inactive)	> 100 µM (inactive)	> 100 µM (inactive)	> 100 µM (inactive)		> 100 µM (inactive)				
NC(CCCNCc1ccccc1O)C(=O)O (stereo not given)	> 100 µM (inactive)	> 100 µM (inactive)	> 100	> 100 µM (inactive)	> 100 µM (inactive)		> 100 µM (inactive)		> 100 µM (inactive)	> 100 µM (inactive)	> 100 µM (inactive)	> 100 µM (inactive)	> 100 µM (inactive)	> 100 µM (inactive)	> 100 µM (inactive)	> 100 µM (inactive)	> 100 µM (inactive)			
O=C(NCCO)c1ccc([N+](=O)[O-])cc1	> 100 µM (inactive)	> 100 µM (inactive)	> 100	> 100 µM (inactive)	> 100 µM (inactive)	> 100 µM (inactive)	> 100 µM (inactive)	> 100 µM (inactive)	> 100 µM (inactive)	> 100 µM (inactive)	> 100 µM (inactive)	> 100 µM (inactive)	> 100 µM (inactive)	> 100 µM (inactive)	> 100 µM (inactive)	> 100 µM (inactive)				
C=CC(=O)Nc1ccccc1CC(c1c[nH]c2ccccc12)c1c[nH]c2ccccc12	16.3 µM (inactive)	19.6 µM (inactive)	18.7	17.8 µM (inactive)	20 µM (inactive)	> 10 µM (inactive)			16.1 µM (inactive)	19.7 µM (inactive)	18.3 µM (inactive)	17.6 µM (inactive)	14.1 µM (inactive)	20.7 µM (inactive)	17.7 µM (inactive)	24.1 µM (inactive)				
CCN(CC)CCN1CCc2c([nH]c3ccccc23)C1c1cccnc1 (stereo not given)	> 100 µM (inactive)	> 100 µM (inactive)	> 100	> 100 µM (inactive)	> 100 µM (inactive)		> 100 µM (inactive)	> 100 µM (inactive)	> 100 µM (inactive)	> 100 µM (inactive)	> 100 µM (inactive)	> 100 µM (inactive)	91.4 µM (inactive)	88.9 µM (inactive)	> 100 µM (inactive)	> 100 µM (inactive)	65 µM (inactive)			
COc1cc2c(cc1OC)CC(=O)Nc1cc(OC)c(OC)cc1CC2	36.1 µM (inactive)	55.2 µM (inactive)	55	> 78.3 µM (inactive)	> 82.6 µM (inactive)		39.3 µM (inactive)	54.7 µM (inactive)	> 73.3 µM (inactive)	43.6 µM (inactive)	37 µM (inactive)	18.5 µM (inactive)	> 59.2 µM (inactive)	24 µM (inactive)	43.9 µM (inactive)	80.9 µM (inactive)	> 80.9 µM (inactive)			
N#CC(/C(=N/NC(=N)N)C(=O)Nc1ccccc1[N+](=O)[O-])c1nc(-c2ccc([N+](=O)[O-])cc2)cs1 (stereo not given)	> 100 µM (inactive)	> 100 µM (inactive)	> 100	> 100 µM (inactive)	> 100 µM (inactive)	> 100 µM (inactive)	> 100 µM (inactive)	> 100 µM (inactive)	> 100 µM (inactive)	> 100 µM (inactive)	> 100 µM (inactive)	> 100 µM (inactive)	> 100 µM (inactive)	> 100 µM (inactive)	> 100 µM (inactive)	> 100 µM (inactive)				
CC(=O)SC(SC(C)=O)SC(C)=O	> 100 µM (inactive)	> 100 µM (inactive)	53.2	> 100 µM (inactive)	> 100 µM (inactive)	> 100 µM (inactive)	> 100 µM (inactive)	> 100 µM (inactive)	51.8 µM (inactive)	> 100 µM (inactive)	24.7 µM (inactive)	> 100 µM (inactive)	60.3 µM (inactive)	54.5 µM (inactive)	91 µM (inactive)	> 100 µM (inactive)				
Cc1ccc(-c2cc(=O)c3cc(C)c(C)c(C(=O)O)c3o2)cc1N	> 100 µM (inactive)		> 100	> 100 µM (inactive)	> 100 µM (inactive)	> 100 µM (inactive)	> 100 µM (inactive)	> 100 µM (inactive)	> 100 µM (inactive)	> 100 µM (inactive)	> 100 µM (inactive)	> 100 µM (inactive)	> 100 µM (inactive)	> 100 µM (inactive)	> 100 µM (inactive)	> 100 µM (inactive)				
Cc1cc2c(=O)c3ccccc3[nH]c2c(C(=O)O)c1C		> 100 µM (inactive)	> 100	> 100 µM (inactive)	> 100 µM (inactive)	67.1 µM (inactive)	> 100 µM (inactive)	> 100 µM (inactive)	> 100 µM (inactive)	> 100 µM (inactive)	> 100 µM (inactive)		31.6 µM (inactive)	> 100 µM (inactive)	> 100 µM (inactive)		< 0.01 µM (active)			
CC12OC3(O)C4C5CC(C6C5C3C61)C42 (stereo not given)	29.4 µM (inactive)	> 100 µM (inactive)	> 100	> 100 µM (inactive)		> 100 µM (inactive)		> 100 µM (inactive)	22.9 µM (inactive)	> 100 µM (inactive)			> 100 µM (inactive)	> 100 µM (inactive)		> 100 µM (inactive)				
O=C(Nc1noc(-c2ccccc2)n1)c1ccccc1CNc1noc(-c2ccccc2)n1	> 100 µM (inactive)	> 100 µM (inactive)	> 100	> 100 µM (inactive)	> 100 µM (inactive)	> 100 µM (inactive)	> 100 µM (inactive)	> 100 µM (inactive)		> 100 µM (inactive)	> 100 µM (inactive)	> 100 µM (inactive)	> 100 µM (inactive)	> 100 µM (inactive)	> 100 µM (inactive)	> 100 µM (inactive)	62.8 µM (inactive)	> 100 µM (inactive)	> 100 µM (inactive)	> 100 µM (inactive)
CCCCCCCCC(O)C#CC(N)=O (stereo not given)	12.3 µM (inactive)		13.2	15.5 µM (inactive)	17.6 µM (inactive)	13.7 µM (inactive)	9.1 µM (inactive)	8.34 µM (inactive)	11.2 µM (inactive)		12.1 µM (inactive)	12 µM (inactive)	3.37 µM (inactive)	13.3 µM (inactive)	7.35 µM (inactive)		10.5 µM (inactive)			
COC(=O)c1c(OC(C)=O)ccc2c1c1c(OC(C)=O)c3ccccc3c(OC(C)=O)c1n2Cc1cc(OC)cc(OC)c1	5.11 µM (inactive)	8.83 µM (inactive)	4.32	24.4 µM (inactive)	9.91 µM (inactive)	8.81 µM (inactive)	3.53 µM (inactive)	5.5 µM (inactive)		2.79 µM (inactive)	47.9 µM (inactive)	4.06 µM (inactive)	7.19 µM (inactive)	11 µM (inactive)	4.51 µM (inactive)	5.09 µM (inactive)	1.8 µM (inactive)	3.82 µM (inactive)	6.64 µM (inactive)	16.3 µM (inactive)
C/C(=N\NC(N)=O)C(CN(C)C)C(c1ccccc1)c1c(O)c2ccccc2oc1=O (stereo not given)	> 100 µM (inactive)	> 100 µM (inactive)	> 100	> 100 µM (inactive)	> 100 µM (inactive)	88.7 µM (inactive)	> 100 µM (inactive)	> 100 µM (inactive)		> 100 µM (inactive)	> 100 µM (inactive)	> 100 µM (inactive)	> 100 µM (inactive)	> 100 µM (inactive)	> 100 µM (inactive)	> 100 µM (inactive)	0.296 µM (active)	> 100 µM (inactive)	> 100 µM (inactive)	> 100 µM (inactive)
